Entries after “also recorded” stand apart in the source; their conditions may differ. * marks the point of attachment. Boc = CC(C)(C)OC(=O)*
Assays:
[1] = test system: Wnt5a; test: SYBR green real-time PCR of Wnt5a mRNA in human primary RPE (hpRPE) cells under UOS; assay type: cell-based
Description: ARPE-19 cells, can be plated and grown in DMEM/F-12 containing 10% FBS and 1× penicillin/streptomycin at 37° C., 5% CO2, 99% relative humidity for 24 h. […] 15-LOX-1 deficient cells can be maintained in the same medium as ARPE-19 with the addition of 500 μg/mL Geneticin (Life Technologies Corporation, Carlsbad, Calif.). Transfection can be performed in all cases using Lipofectamine 2000 (Life Technologies Corporation, Carlsbad, Calif.) following the manufacturer's recommendations. […] Experiments with transfection efficiency that yielded less than 80% can be discarded. For siRNA, we used 6 μl of Lipofectamine 2000 per 50 pmol of siRNA per mL of incubation medium, and, for plasmids, we used 6 μl of Lipofectamine 2000 per 2 μg of plasmid per mL of incubation medium. Cells can be incubated for 5 hours at 37° C., 5% CO2 and 99% relative humidity. […] When siRNA/plasmid co-transfection is required, siRNA and plasmid-carrying transfection mixes can be prepared separately and added one after the other in the same well. Oxidative stress treatments can be performed using 600 (ARPE-19) or 1600 (hRPE) μM H2O2, along with 10 ng/mL TNFα, for the required time indicated in each experiment. The treatment we used employed the low serum (0.5% serum) without hFGF. Treatment to induce uncompensated oxidative stress (UOS) can be performed after 8 hours of low-serum medium incubation unless specifically noted. […]

[2] = test system: rats subjected to MCAo; test: Transient middle cerebral artery occlusion (MCAo): behavioral tests, neurological score; assay type: in vivo, rat; conditions: for neuronal damage / neuroprotection in stroke model (tissue and behavioral): rat MCAo, summary statements
Source text: In certain embodiments, Male Sprague-Dawley rats (290-320 g; Charles River Lab, Wilmington, Mass., USA) are used for in vivo studies. For all surgical procedures, animals can be fasted and anesthesia can be induced with 3.5% isoflurane and 70% nitrous oxide and 30% oxygen. Animals can be orotracheally intubated; given atropine for secretions, pancuronium for immobilization; ventilated mechanically on a humidified mixture of 70% nitrous oxide, 1.0-1.5% isoflurane and a balance of oxygen. A femoral artery and vein can be catheterized for continuous blood pressure monitoring and periodic blood sampling for arterial gases and pH. PCO2 can be maintained at 35-40 mm Hg and P02 at 105-120 mm Hg by ventilator adjustments. Rectal temperature can be measured with a thermistor and maintained with a heating lamp at 37.0-37.5° C. Cranial (temporalis muscle) temperature also can be monitored and regulated with a separate warming lamp at 36.2-36.7° C.
The right MCA can be occluded for 2 h by intraluminal filament, as described previously (Belayev et al. 2011). Briefly, the right common carotid artery (CCA) and external carotid artery (ECA) can be exposed through midline neck incision, and then completely isolated from the surrounding nerves. The occipital branches of the ECA and pterygopalatine artery can be ligated. A 4-cm of 3-0 nylon filament, coated with poly-L-lysine can be advanced to the origin of MCA through the proximal ECA via internal carotid artery. The filament can be inserted 20 to 22 mm from the bifurcation of the CCA, according to the animal's body weight. The neck incision can then be closed, and the rats can be returned to their cages. […]
In certain embodiments, behavioral tests are conducted before, during MCAo (at 60 min), and then at 24 h, 48 h, 72 h, or 7 days after MCAo by an investigator blinded to the experimental groups. […] In embodiments, the severity of stroke injury is assessed by behavioral examination of each rat at 60 min after onset of MCAo. […]

Compound	Wnt5a transcription (mRNA) ([1]; hpRPE cells, UOS 1,600 μM H2O2 and 10 ng/ml TNFα, 6 hours)	increase of Wnt5a expression on cRel silencing ([1]; hpRPE, UOS plus NPD1, 12-fold in control, 8-fold in UOS) [fold]	neuronal damage / neuroprotection in stroke model (tissue and behavioral) [2]	neuronal damage / neuroprotection in stroke model (tissue and behavioral) ([2]; listed as BOX5)	neurological score (total, tactile and proprioceptive placing) ([2]; rat, 2 h MCAo, IV 1 h later, DHA 5 mg/kg or Box5 (1 mg/kg; 400 μg), days 1, 2, 3, 7, versus saline)
CC/C=C\C[C@H](O)\C=C/C=C/C=C/[C@H](O)C/C=C\C/C=C\CCC(=O)O [NPD1, 10R,17S-dihydroxy-docosa-4Z,7Z,11E,13E,15Z,19Z-hexaenoic acid]	down regulated Wnt5a transcription; also recorded: decreased Wnt5a expression	4	–	–	–
t-Boc-NH-Met-Asp-Gly-Cys-Glu-Leu-CO2H (Boc-MDGCEL-OH) [Box5]	–	–	significantly decreased; also recorded: beneficious at the behavioral level as well as in the reduction of stroke damage; also recorded: protection at the neurological/behavioral level as well as by reduction of stroke damage	remarkable neuroprotection	remarkable similarity to that obtained by DHA treatment; also recorded: improvement in neurological score; also recorded: resembling DHA treatment; also recorded: neurological protection remarkable similar to that obtained by DHA treatment
